Reference: article PMC9005971, “Discovery of 2-(4-Acrylamidophenyl)-Quinoline-4-Carboxylic Acid Derivatives as Potent SIRT3 Inhibitors” (Frontiers in Chemistry, 2022)

Columns and labels:
SIRT2 = target: T1, SIRT2 (Homo sapiens, UniProt Q8IXJ6); experiment: SIRT2 enzyme inhibitory assay (fluorescence); format: biochemical; conditions: for activity at 0.01 µM / activity at 0.033 µM / activity at 0.1 µM / activity at 0.333 µM / activity at 1 µM / activity at 3.3 µM / activity at 10 µM / activity at 33 µM / activity at 100 µM: SIRT2 enzyme activity; for activity at 0.01 µM: 10 nM; for activity at 0.033 µM: 33 nM; for activity at 0.1 µM: 100 nM; for activity at 0.333 µM: 333 nM
T1 sequence (Q8IXJ6 1-389): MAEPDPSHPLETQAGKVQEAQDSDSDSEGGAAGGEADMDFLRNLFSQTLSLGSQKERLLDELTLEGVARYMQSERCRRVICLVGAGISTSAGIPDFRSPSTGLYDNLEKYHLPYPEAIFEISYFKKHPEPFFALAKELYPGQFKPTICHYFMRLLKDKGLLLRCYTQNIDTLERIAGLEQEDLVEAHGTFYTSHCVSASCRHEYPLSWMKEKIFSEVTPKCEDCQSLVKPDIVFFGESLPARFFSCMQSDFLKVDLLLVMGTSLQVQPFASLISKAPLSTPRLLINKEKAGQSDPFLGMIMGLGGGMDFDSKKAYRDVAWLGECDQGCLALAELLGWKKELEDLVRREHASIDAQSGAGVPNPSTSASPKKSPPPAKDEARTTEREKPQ
Procedure: All of the enzymatic reactions were conducted at 37°C for 30 min. […] The compounds were diluted in 10% DMSO and 5 ul of the dilution was added to each reaction mixture (50 ul). The assay was performed by quantitating the amount of fluorescent product generated from the enzyme reaction. Fluorescence intensity is then analyzed at excitation wavelength of 350–360 nm and emission wavelength of 450–460 nm on a SpectraMax M5 microtiter plate reader. The IC50 values were calculated using Prism GraphPad software.

MV4-11 cells = experiment: In vitro antiproliferative CCK-8 assay, MV4-11; format: cell-based; conditions: Homo sapiens, 72 h, read-out: IC50 growth inhibition MV4-11
Procedure: (§1) The proliferation of THP-1, MOLM-13, SEM and MV4-11 cells was tested by CCK-8 assay. Briefly, cells were seeded in 96-well plate with about 5 × 10^3 cells in each well. The cells were treated with P6 or Ara-C (0–10 µM) after 24 h of incubation. CCK-8 reagent ([…]) was added to each well after 72 h of incubation, and cells were incubated at 37°C for 4 h. The light absorbance at 450 nm was measured by using an Opsys microplate reader (Dynex Technologirs, Chantilly, VA, United States). Results are illustrated as percent of cell viability normalized to DMSO-treated control cells.

[1] = tested on: THP-1, MOLM-13, SEM and MV4-11 cells; experiment: Colony formation assay, MLLr leukemic cells; format: cell-based; conditions: 0.2–2.0 µM, 12 days
Procedure: (§2) THP-1, MOLM-13, SEM and MV4-11 cells were cultured with P6 (0–2.0 µM) in 2.6% methycellulose medium containing 10% FBS in a 24-well flat-bottomed plate for 12 days ([Qu et al., 2021]). The number of individual colonies consisting of more than approximately 50 cells was counted by a CX43 microscope (Olympus, Shinjuku-ku, Tokyo, Japan) with an Olympus EP50 camera (Olympus, Shinjuku-ku, Tokyo, Japan).

THP-1 cells [2] = experiment: In vitro antiproliferative CCK-8 assay, THP-1; format: cell-based; conditions: Homo sapiens
Procedure: as §1

[3] = tested on: THP-1, MOLM-13, SEM and MV4-11 cells; experiment: Cell apoptosis analysis, MLLr leukemic cells; format: cell-based; conditions: 72 h, flow cytometry
Procedure: THP-1, MOLM-13, SEM and MV4-11 cells were treated with P6 (0.45–4 µM) or Ara-C (0.1–2.0 µM) for 72 h, collected and resuspended in 1× binding buffer. Cells were incubated with FITC Annexin V and PI double labeling for 30 min in the dark at room temperature and measured by flow cytometry.

THP-1 cells [4] = experiment: Colony formation assay, THP-1; format: cell-based; conditions: 12 days
Procedure: as §2

`C=CC(=O)Nc1ccc(-c2cc(C(=O)N3CCN(c4ccccc4F)CC3)c3ccccc3n2)cc1` [Compound P6, N-(4-{4-[4-(2-Fluoro-phenyl)-piperazine-1-carbonyl]-quinolin-2-yl}-phenyl)-acrylamide] showed an activity at 0.01 µM (SIRT2; Repeat1) of 100%, an activity at 0.01 µM (SIRT2; Repeat2) of 98% and an activity at 0.033 µM (SIRT2; Repeat1) of 96%. For the same molecule, the activity at 0.033 µM (SIRT2; Repeat2) was 100%, the activity at 0.1 µM (SIRT2; Repeat1) was 101% and the activity at 0.1 µM (SIRT2; Repeat2) was 101%. For the same molecule, the activity at 0.333 µM (SIRT2; Repeat1) was 100%, the activity at 0.333 µM (SIRT2; Repeat2) was 95% and the activity at 1 µM (SIRT2; Repeat1) was 93%. It also gave an activity at 1 µM (SIRT2; Repeat2) of 83%, an activity at 3.3 µM (SIRT2; Repeat1) of 83% and an activity at 3.3 µM (SIRT2; Repeat2) of 73%. The activity at 10 µM (SIRT2; Repeat1) was 64%, the activity at 10 µM (SIRT2; Repeat2) was 65% and the activity at 33 µM (SIRT2; Repeat1) was 51%. It also gave an activity at 33 µM (SIRT2; Repeat2) of 48%, an activity at 100 µM (SIRT2; Repeat1) of 36% and an activity at 100 µM (SIRT2; Repeat2) of 39%. The IC50 (SIRT2; mean of two experiments) was 33500 ± 1600 nM, the IC50 (MV4-11 cells) was 1900 nM and the “effect on number of colonies” value [1] was “significantly reduce the number of colonies with a dose dependent manner”. For the same molecule, the IC50 (THP-1 cells [2]; 72 h, CCK-8, read-out: IC50 growth inhibition THP-1) was 870 nM, the inhibition at 1 µM (THP-1 cells [2]; dose of 1 μM, mean of three experiments, read-out: THP-1 percentage inhibitory rate) was 85.9 ± 3.42% and the induction of apoptosis [3] was “no significant apoptosis”. For the same molecule, the colony formation percentage (THP-1 cells [4]; THP-1, 0.2 µM) was 93.2, the colony formation percentage (THP-1 cells [4]; THP-1, 0.4 µM) was 13.4 and the colony formation percentage (THP-1 cells [4]; THP-1, 0.8 µM) was 4.1.
